Results on nine compounds are retold here after patent publication US10166218B2, “3-(1H-indol-2-yl)-1H-pyrazolo[3,4-C]pyridines and therapeutic uses thereof” (Samumed, LLC, priority 2015, dated 2019).

What all share (assay type): cell-based
One assay deals with IL-6 (THP-1 cells). The experiment in a line: Inhibition of IL-6 in LPS-stimulated THP-1 human monocyte cells (HTRF). As to conditions: inhibition of IL-6 in LPS-stimulated THP-1 cells, HTRF, 10-point dose-response starting from 10 μM. The protocol:
Human monocyte cell line (THP-1 cells; Catalog # TIB-202, ATCC, Manassas, Va.) were cultured in Roswell Park Memorial Institute (RPMI) 1640 Medium (Catalog #21870-100, Buffalo, N.Y.) with 1% L-glutamine, 1% HEPES, 1% Sodium Pyruvate, 2% Sodium Bicarbonate supplemented with 100 units/mL penicillin, 50 μg/mL streptomycin, 2-mercaptoethanol (0.05 mM) [basal medium] and 10% fetal bovine serum (Catalog #16140089, Life Technologies, Carlsbad, Calif.) at 37° C. and 5% CO2.
THP-1 cells were cultured in basal media with 1% FBS for 24 hours before the start of the assay. Each compound was dissolved in DMSO as a 10 mM stock and used to prepare compound source plates. Serial dilution (1:3, 10-point dose-response curves starting from 10 μM) and compound transfer was performed using the ECHO 550 (Labcyte, Sunnyvale, Calif.) into 384-well white low volume assay plates (Greiner Bio-One) with appropriate DMSO backfill for a final DMSO concentration of 0.1%. THP-1 cells were plated at 5000 cells/well in the 384-well plates and incubated at 37° C. for 2 h. 500 ng/mL of LPS was added after 2 hours and cells were incubated for another 22 hours at 37° C. Plates were spun in a centrifuge for 1 minute at […] and a mixture of anti-IL6 XL665, and anti-IL6 Cryptate diluted in reconstitution buffer (Cisbio Inc.) was added to each well. Following incubation for 3 hrs at room temperature, Homogeneous Time-Resolved Fluorescence (HTRF) was measured using the Envision (Perkin Elmer) at 665 nm and […]. The ratio of fluorescence at 665 nm to 620 nm was used as a readout for IL6 quantification. All samples were processed in duplicate. Readings were normalized to DMSO treated cells and normalized activities were utilized for EC50 calculations using the dose-response log (inhibitor) vs. response-variable slope (four parameters) nonlinear regression feature available in GraphPad Prism 5.0 (or Dotmatics). For EC50 of >10 μM, the percent inhibition at 10 μM is provided.

For assay [1], the system named is primary human fibroblasts derived from IPF patients (LL29 cells) treated with TGF-β1; α-smooth muscle actin (αSMA). The experiment in a line: Inhibition of the fibrotic process: αSMA staining in TGF-β1 treated primary human fibroblasts from IPF patients (LL29 cells). As to conditions: Fibroblast, 96 h, TGF-β1 20 ng/mL, 4 days, % cells positive for αSMA. The text has this:
Representative compounds were screened using primary human fibroblasts (derived from IPF patients) treated with TGF-β1 to determine their ability to inhibit the fibrotic process.
Primary human fibroblasts derived from IPF patients (LL29 cells) [^1Xiaoqiu Liu, et. al., “Fibrotic Lung Fibroblasts Show Blunted Inhibition by cAMP Due to Deficient cAMP Response Element-Binding Protein Phosphorylation”, Journal of Pharmacology and Experimental Therapeutics (2005), 315(2), 678-687; ^2Watts, K. L., et. al., “RhoA signaling modulates cyclin D1 expression in human lung fibroblasts; implications for idiopathic pulmonary fibrosis”, Respiratory Research (2006), 7(1), 88] were obtained from American Type Culture Collection (ATCC) and expanded in F12 medium supplemented with 15% Fetal Bovine Serum and Penicillin/Streptomycin.
Each compound was dissolved in DMSO as a 10 mM stock and used to prepare compound source plates. Serial dilution (1:2, 11-point dose-response curves from 10 μM to 1.87 nM) and compound transfer was performed using the ECHO 550 (Labcyte, Sunnyvale, Calif.) into 384-well clear bottom assay plates (Greiner Bio-One) with appropriate DMSO backfill for a final DMSO concentration of 0.1%. LL29 cells are plated at 1,500 cells/well in 80 μL/well F12 medium supplemented with 1% Fetal Bovine Serum. One hour after addition of the cells, TGF-β1 (Peprotech; 20 ng/mL) was added to the plates to induce fibrosis (ref. 1 and 2 above). Wells treated with TGF-β1 and containing DMSO were used as controls. Cells were incubated at 37° C. and 5% CO2 for 4 days. Following incubation for 4 days, SYTOX green nucleic acid stain (Life Technologies [Thermo Fisher Scientific]) was added to the wells at a final concentration of 1 μM and incubated at room temperature for 30 min. Cells were then fixed using 4% formaldehyde (Electron Microscopy Sciences), washed 3 times with PBS followed by blocking and permeabilization using 3% Bovine Serum Albumin (BSA; Sigma) and 0.3% Triton X-100 (Sigma) in PBS. Cells were then stained with antibody specific to α-smooth muscle actin (αSMA; Abcam) (ref. 1 and 2 above) in 3% Bovine Serum Albumin (BSA; Sigma) and 0.3% Triton X-100 (Sigma) in PBS, and incubated overnight at 4° C. Cells were then washed 3 times with PBS, followed by incubation with Alexa Flor-647 conjugated secondary antibody (Life Technologies [Thermo Fisher Scientific]) and DAPI at room temperature for 1 hour. Cells were then washed 3 times with PBS and plates were sealed for imaging. αSMA staining was imaged by excitation at 630 nm and emission at 665 nm and quantified using the Compartmental Analysis program on the CellInsight CX5 (Thermo Scientific). Dead or apoptotic cells were excluded from analysis based on positive SYTOX green staining. % of total cells positive for αSMA were counted in each well and normalized to the average of 11 wells treated with TGF-β1 on the same plate using Dotmatics' Studies Software. The normalized averages (fold change over untreated) of 3 replicate wells for each compound concentration were used to create dose-responses curves and EC50 values were calculated using non-linear regression curve fit in the Dotmatics' Studies Software. For EC50 of >10 μM, the percent inhibition at 10 μM is provided.

In assay [2] the test system is Wnt activity (Sp5-Luc reporter, TCF/LEF binding sites) in SW480 colon carcinoma cells. Briefly: Screening assay for Wnt activity: Sp5-Luc reporter gene assay in stably transduced SW480 cells. The conditions noted are these: Homo sapiens, overnight incubation. The text has this: The screening assay for Wnt activity is described as follows. Reporter cell lines can be generated by stably transducing cancer cell lines (e.g., colon cancer) or primary cells (e.g., IEC-6 intestinal cells) with a lentiviral construct that includes a Wnt-responsive promoter driving expression of the firefly luciferase gene.
SW480 colon carcinoma cells were transduced with a lentiviral vector expressing luciferase with a human Sp5 promoter consisting of a sequence of eight TCF/LEF binding sites. SW480 cells stably expressing the Sp5-Luc reporter gene and a hygromycin resistance gene were selected by treatment with 150 μg/mL of hygromycin for 7 days. These stably transduced SW480 cells were expanded in cell culture and used for all further screening activities. Each compound was dissolved in DMSO as a 10 mM stock and used to prepare compound source plates. Serial dilution (1:3, 10-point dose-response curves starting from 10 μM) and compound transfer was performed using the ECHO 550 (Labcyte, Sunnyvale, Calif.) into 384-well white solid bottom assay plates (Greiner Bio-One) with appropriate DMSO backfill for a final DMSO concentration of 0.1%. For Sp5-Luc reporter gene assays, the cells were plated at 4,000 cells/well in 384-well plates with medium containing 1% fetal bovine serum and incubated overnight at 37° C. and 5% CO2. Following incubation, 20 μl of BrightGlo luminescence reagent (Promega) was added to each well of the 384-well assay plates. The plates were placed on an orbital shaker for 2 min and then luminescence was quantified using the Envision (Perkin Elmer) plate reader. Readings were normalized to DMSO only treated cells, and normalized activities were utilized for EC50 calculations using the dose-response log (inhibitor) vs. response-variable slope (four parameters) nonlinear regression feature available in GraphPad Prism 5.0 (or Dotmatics). For EC50 of >10 μM, the percent inhibition at 10 μM is provided.

The subject of a further assay is SW480 colon cancer cells. Briefly: Cell viability assay (CellTiter-Blue) in SW480 colon cancer cells. The conditions noted are these: Homo sapiens, 96 h, four days, CellTiter-Blue. The protocol:
Representative compounds were screened using the following assay procedure to assess the effect on cell viability as described below.
Each compound was dissolved in DMSO as a 10 mM stock and used to prepare compound source plates. Serial dilution (1:3, 8-point dose-response curves from 10 μM to 0.0045 μM) and compound transfer was performed using the ECHO 550 (Labcyte, Sunnyvale, Calif.) into 96-well clear bottom, black-walled plates (Corning-Costar).
Approximately 2×10^3 SW480 colon cancer cells were seeded into each well and allowed to incubate in the presence or absence of compound for four days at 37° C./5% CO2. Eight replicates of DMSO-treated cells served as controls and cells treated with compound were performed in duplicate.
After incubation, 20 μL of CellTiter-Blue (Promega) was added to each well allowed to incubate for approximately 3 hours. This reagent was a buffered solution which contains resazurin, metabolically active cells were able to reduce rezarurin (blue) into resorufin (pink) which was highly fluorescent. This measured fluorescence was used as a readout for cell viability.
After incubation, the plates were read at Ex 560 nm Em 590 nm (Cytation 3, BioTek). Dose-response curves were generated and EC50 concentration values were calculated using non-linear regression curve fit in the GraphPad Prism (San Diego, Calif.) or Dotmatics' Studies Software (Bishops Stortford, UK). For EC50 of >10 μM, the percent inhibition at 10 μM is provided.

As to `FC1(F)CCN(Cc2cncc(-c3cc4c(-c5cc6c(-c7cccnc7)cccc6[nH]5)n[nH]c4cn3)c2)C1` [Compound 110, 5-(5-((3,3-Difluoropyrrolidin-1-yl)methyl)pyridin-3-yl)-3-(4-(pyridin-3-yl)-1H-indol-2-yl)-1H-pyrazolo[3,4-c]pyridine], the 50% effective concentration (EC50) is 422 nM with IL-6 (THP-1 cells), 81 nM in assay [1], 137 nM in assay [2] and 1070 nM with SW480 colon cancer cells.

For the compound `CC(C)CC(=O)Nc1cncc(-c2cc3c(-c4cc5c(-c6ccncc6)cccc5[nH]4)n[nH]c3cn2)c1` [Compound 114, 3-Methyl-N-(5-(3-(4-(pyridin-4-yl)-1H-indol-2-yl)-1H-pyrazolo[3,4-c]pyridin-5-yl)pyridin-3-yl)butanamide], the 50% effective concentration (EC50) with IL-6 (THP-1 cells) came to 1080 nM; in assay [1], 33 nM; in assay [2], 469 nM; with SW480 colon cancer cells, 6980 nM.

Take `CC(C)Nc1cncc(-c2cc3c(-c4cc5c(-c6ccncc6)cccc5[nH]4)n[nH]c3cn2)c1` [Compound 124, N-Isopropyl-5-(3-(4-(pyridin-4-yl)-1H-indol-2-yl)-1H-pyrazolo[3,4-c]pyridin-5-yl)pyridin-3-amine]: the EC50 in the assay on IL-6 (THP-1 cells) came to 3350 nM; in assay [1] it was 138 nM; in assay [2] it was 108 nM; with SW480 colon cancer cells, 5830 nM.

Take `c1ccc(-c2cc3c(-c4cc5c(-c6ccncc6)cccc5[nH]4)n[nH]c3cn2)nc1` [Compound 140, 5-(Pyridin-2-yl)-3-(4-(pyridin-4-yl)-1H-indol-2-yl)-1H-pyrazolo[3,4-c]pyridine]: the concentration giving a half-maximal response (EC50) turned out to be 481 nM with IL-6 (THP-1 cells), 319 nM in assay [1], 485 nM in assay [2] and 370 nM in the assay on SW480 colon cancer cells.

In the case of `O=C(Cc1ccccc1)Nc1cncc(-c2cc3c(-c4cc5c(-c6ccccn6)cccc5[nH]4)n[nH]c3cn2)c1` [Compound 150, 2-Phenyl-N-(5-(3-(4-(pyridin-2-yl)-1H-indol-2-yl)-1H-pyrazolo[3,4-c]pyridin-5-yl)pyridin-3-yl)acetamide], the EC50 in the assay with IL-6 (THP-1 cells) came to 2020 nM; in assay [1], 531 nM; in assay [2] it was 1420 nM; in the assay on SW480 colon cancer cells, 2970 nM.

`O=C(Nc1cncc(-c2cc3c(-c4cc5c(-c6ccccn6)cccc5[nH]4)n[nH]c3cn2)c1)C1CCCCC1` [Compound 163, N-(5-(3-(4-(Pyridin-2-yl)-1H-indol-2-yl)-1H-pyrazolo[3,4-c]pyridin-5-yl)pyridin-3-yl)cyclohexanecarboxamide]: the EC50 was determined as 2490 nM with IL-6 (THP-1 cells), 81 nM in assay [1], 550 nM in assay [2] and 938 nM with SW480 colon cancer cells.

Regarding `CC(C)CC(=O)Nc1cncc(-c2cc3c(-c4cc5c(N6CCCCC6)cccc5[nH]4)n[nH]c3cn2)c1` [Compound 170, 3-Methyl-N-(5-(3-(4-(piperidin-1-yl)-1H-indol-2-yl)-1H-pyrazolo[3,4-c]pyridin-5-yl)pyridin-3-yl)butanamide], the EC50 stood at 4290 nM with IL-6 (THP-1 cells), 902 nM in assay [1], 1330 nM in assay [2] and 4650 nM in the assay on SW480 colon cancer cells.

For `CCNCc1cncc(-c2cc3c(-c4cc5c(N6CCCCC6)cccc5[nH]4)n[nH]c3cn2)c1` [Compound 174, N-((5-(3-(4-(Piperidin-1-yl)-1H-indol-2-yl)-1H-pyrazolo[3,4-c]pyridin-5-yl)pyridin-3-yl)methyl)ethanamine], the EC50 with IL-6 (THP-1 cells) came out at 167 nM; in assay [1], 650 nM; in assay [2], 553 nM; in the assay with SW480 colon cancer cells, 1080 nM.

Take `CC(C)(C)C(=O)Nc1cncc(-c2cc3c(-c4cc5c(N6CCCCC6)cccc5[nH]4)n[nH]c3cn2)c1` [Compound 176, N-(5-(3-(4-(Piperidin-1-yl)-1H-indol-2-yl)-1H-pyrazolo[3,4-c]pyridin-5-yl)pyridin-3-yl)pivalamide]: the concentration giving a half-maximal response (EC50) with IL-6 (THP-1 cells) is 8890 nM; in assay [1], 700 nM; in assay [2], 3040 nM; with SW480 colon cancer cells it was 7140 nM.
